Three compounds from PMC9954641, “Molecular Insight into Drug Resistance Mechanism Conferred by Aberrant PIK3CD Splice Variant in African American Prostate Cancer” (Cancers, 2023) can be followed below.

What all share (format): biochemical
In assay [1] the target is T1, PI3Kδ-L (full-length PI3Kδ) (Homo sapiens, UniProt O00329).
T1 construct: gene PIK3CD; full-length PI3Kδ-L, V5-His tagged, Ni-NTA purified from transfected LNCaP and MDA PCa 2b cells
T1 sequence (O00329 1-1044): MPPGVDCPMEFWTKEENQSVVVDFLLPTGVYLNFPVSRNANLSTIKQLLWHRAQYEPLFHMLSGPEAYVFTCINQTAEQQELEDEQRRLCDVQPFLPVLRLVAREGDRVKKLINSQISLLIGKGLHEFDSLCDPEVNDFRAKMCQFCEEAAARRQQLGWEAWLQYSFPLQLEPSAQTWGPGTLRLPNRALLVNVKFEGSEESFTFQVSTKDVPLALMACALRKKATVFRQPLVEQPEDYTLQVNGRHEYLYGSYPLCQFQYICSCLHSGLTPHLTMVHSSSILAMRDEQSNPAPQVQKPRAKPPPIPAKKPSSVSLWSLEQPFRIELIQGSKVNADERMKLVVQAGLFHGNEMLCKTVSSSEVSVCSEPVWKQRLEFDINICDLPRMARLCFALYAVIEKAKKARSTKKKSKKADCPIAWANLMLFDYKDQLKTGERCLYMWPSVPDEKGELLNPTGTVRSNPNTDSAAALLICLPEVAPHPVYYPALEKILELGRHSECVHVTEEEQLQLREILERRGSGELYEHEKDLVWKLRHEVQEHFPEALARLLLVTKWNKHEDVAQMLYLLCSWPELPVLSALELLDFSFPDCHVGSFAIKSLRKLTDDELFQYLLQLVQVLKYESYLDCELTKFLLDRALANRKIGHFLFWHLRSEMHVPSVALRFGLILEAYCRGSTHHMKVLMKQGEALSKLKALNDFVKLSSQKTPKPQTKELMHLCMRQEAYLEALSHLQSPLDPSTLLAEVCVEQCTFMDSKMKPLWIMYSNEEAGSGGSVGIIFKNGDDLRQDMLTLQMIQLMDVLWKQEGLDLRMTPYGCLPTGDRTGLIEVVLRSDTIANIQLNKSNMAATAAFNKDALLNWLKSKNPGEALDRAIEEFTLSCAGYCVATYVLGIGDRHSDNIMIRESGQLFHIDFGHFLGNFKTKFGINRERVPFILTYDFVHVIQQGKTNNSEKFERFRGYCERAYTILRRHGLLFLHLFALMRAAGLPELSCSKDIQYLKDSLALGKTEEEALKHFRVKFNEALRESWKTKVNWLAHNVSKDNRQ
The assay can be described thus: cell-free PI3 kinase activity assay at […]; also ATP-competitive binding assay ([…] less ATP bound).

In assay [2] the target is T1, PI3Kδ-L (full-length PI3Kδ). The assay is described as above. The source holds these as a separate data set.
Assay [3] has the same target. The assay can be described thus: cell-free PI3 kinase activity assay at […] (no effect at […] on MDA PCa 2b-derived protein); also ATP-competitive binding assay ([…] less ATP bound).

Like-named read-outs stand apart in the source and are kept apart here.

Turning to `Cn1c(=O)n(-c2ccc(C(C)(C)C#N)cc2)c2c3cc(-c4cnc5ccccc5c4)ccc3ncc21` [Dactolisib], the “cell-free PI3 kinase activity assay at 1 and 10 μM; also ATP-competitive binding” value in assay [1] was “Idelalisib, Seletalisib, Wortmannin, and Dactolisib effectively suppressed the PI3Kδ-L activities”.
As to `[O-][n+]1cccc(-c2nc3c(Cl)cccc3cc2[C@@H](Nc2ncnc3cccnc23)C(F)(F)F)c1` [Seletalisib], the “cell-free PI3 kinase activity assay at 1 and 10 μM; also ATP-competitive binding” value in assay [2] is “Idelalisib, Seletalisib, Wortmannin, and Dactolisib effectively suppressed the PI3Kδ-L activities”.
Consider `COC[C@H]1OC(=O)c2coc3c2[C@@]1(C)C1=C(C3=O)[C@@H]2CCC(=O)[C@@]2(C)C[C@H]1OC(C)=O` [Wortmannin], for which the “cell-free PI3 kinase activity assay at 1 and 10 μM (no effect at 1 μM on MDA PCa)” value in assay [3] is “Idelalisib, Seletalisib, Wortmannin, and Dactolisib effectively suppressed the PI3Kδ-L activities”.
